Measurements from US4650801A, “Anti-cancer compositions for delivering 5-fluorouracil” (Taiho Pharmaceutical Company, Ltd., priority 1978, dated 1987).
Like-named read-outs stand apart in the source and are kept apart here.

Tested on: sarcoma 180
Assay type: in vivo
Description: The anti-cancer compositions of this invention are tested in mice by the following methods to determine acute toxicity, anti-cancer effect and therapeutic index
Male mice of ICR strain weighing 22±1 g are used, 5 mice in each group. A 5-fluorouracil (a) and uracil derivative (b) in the proportions listed in Tables 1-16 are suspended in a 5% solution of gum arabic to prepare a suspension, which is forcibly orally administered to each mouse through a tube at a dose of 1 ml/100 g. Over the following period of three weeks the mice are checked every day for poisoning, body weight and mortality. The LD50 is determined according to the up-and-down method 3 weeks after the administration.
Tissues of sarcoma 180, 2×10^6, are subcutaneously transplanted in the back of male mice of ICR strain (6 mice in each group). A 5-fluorouracil (a) and uracil derivative (b) in the proportions listed in Tables 1-16 are suspended in a 5% solution of gum arabic to prepare a suspension. Twenty-four hours after the transplantation and during the following seven consecutive days the suspension is orally given to the animal once every day.
The LD50 and ED50 values obtained above are used to determine the therapeutic index (LD50 /ED50).

**Q.** How did the “Therapeutic Index (LD50/ED50)” value ((b) = 1(2-Tetrahydrofuryl)uracil, (b)/(a) mol ratio 1) turn out when `O=c1[nH]cc(F)c(=O)n1C1CCCO1` (stereo not shown) [Compound 6, 3-(2-Tetrahydrofuryl)-5-fluorouracil] was run?
**A.** Its value is 17.1.

**Q.** What about the “Therapeutic Index (LD50/ED50)” value ((b) = 1(2-Tetrahydrofuryl)uracil, (b)/(a) mol ratio 2) of the same compound?
**A.** Its value is 22.4.

**Q.** And the “Therapeutic Index (LD50/ED50)” value ((b) = 1(2-Tetrahydrofuryl)uracil, (b)/(a) mol ratio 5)?
**A.** Its value is 29.7.

**Q.** And the “Therapeutic Index (LD50/ED50)” value ((b) = 1Acetyluracil, (b)/(a) mol ratio 1)?
**A.** The value was 21.9.

**Q.** And the “Therapeutic Index (LD50/ED50)” value ((b) = 1Acetyluracil, (b)/(a) mol ratio 2)?
**A.** Its value is 18.0.

**Q.** What about the “Therapeutic Index (LD50/ED50)” value ((b) = 1Acetyluracil, (b)/(a) mol ratio 5) of the same compound?
**A.** Its value is 15.4.

**Q.** What about the “Therapeutic Index (LD50/ED50)” value ((b) = 1Cyclohexylcarbamoyluracil, (b)/(a) mol ratio 0.5) of the same compound?
**A.** Its value is 15.1.

**Q.** And the “Therapeutic Index (LD50/ED50)” value ((b) = 1Cyclohexylcarbamoyluracil, (b)/(a) mol ratio 2)?
**A.** Its value is 15.1.

**Q.** And the “Therapeutic Index (LD50/ED50)” value ((b) = 1Cyclohexylcarbamoyluracil, (b)/(a) mol ratio 5)?
**A.** Its value is 17.5.

**Q.** What about the “Therapeutic Index (LD50/ED50)” value ((b) = 1n-Hexylcarbamoyluracil, (b)/(a) mol ratio 1) of the same compound?
**A.** Its value is 15.7.

**Q.** And the “Therapeutic Index (LD50/ED50)” value ((b) = 1n-Hexylcarbamoyluracil, (b)/(a) mol ratio 2)?
**A.** The value was 20.6.

**Q.** And the “Therapeutic Index (LD50/ED50)” value ((b) = 1n-Hexylcarbamoyluracil, (b)/(a) mol ratio 10)?
**A.** Its value is 16.8.

**Q.** What about the “Therapeutic Index (LD50/ED50)” value ((b) = 2'-Deoxycytidine, (b)/(a) mol ratio 1) of the same compound?
**A.** The value was 15.7.

**Q.** And the “Therapeutic Index (LD50/ED50)” value ((b) = 2'-Deoxycytidine, (b)/(a) mol ratio 2)?
**A.** Its value is 17.9.

**Q.** And the “Therapeutic Index (LD50/ED50)” value ((b) = 2'-Deoxycytidine, (b)/(a) mol ratio 10)?
**A.** Its value is 20.0.

**Q.** And the “Therapeutic Index (LD50/ED50)” value ((b) = 2'-Deoxyuridine, (b)/(a) mol ratio 1)?
**A.** The value was 15.9.

**Q.** What about the “Therapeutic Index (LD50/ED50)” value ((b) = 2'-Deoxyuridine, (b)/(a) mol ratio 2) of the same compound?
**A.** Its value is 18.8.

**Q.** And the “Therapeutic Index (LD50/ED50)” value ((b) = 2'-Deoxyuridine, (b)/(a) mol ratio 20)?
**A.** The value was 20.2.

**Q.** And the “Therapeutic Index (LD50/ED50)” value ((b) = 3Benzoyluracil, (b)/(a) mol ratio 1)?
**A.** The value was 18.3.

**Q.** And the “Therapeutic Index (LD50/ED50)” value ((b) = 3Benzoyluracil, (b)/(a) mol ratio 2)?
**A.** Its value is 20.7.

**Q.** What about the “Therapeutic Index (LD50/ED50)” value ((b) = 3Benzoyluracil, (b)/(a) mol ratio 10) of the same compound?
**A.** The value was 17.9.

**Q.** What about the “Therapeutic Index (LD50/ED50)” value ((b) = 5Bromo-2'-deoxyuridine, (b)/(a) mol ratio 0.5) of the same compound?
**A.** The value was 13.1.

**Q.** What about the “Therapeutic Index (LD50/ED50)” value ((b) = 5Bromo-2'-deoxyuridine, (b)/(a) mol ratio 2) of the same compound?
**A.** Its value is 15.9.

**Q.** And the “Therapeutic Index (LD50/ED50)” value ((b) = 5Bromo-2'-deoxyuridine, (b)/(a) mol ratio 10)?
**A.** Its value is 14.0.

**Q.** What about the “Therapeutic Index (LD50/ED50)” value ((b) = 5Bromouracil, (b)/(a) mol ratio 0.5) of the same compound?
**A.** The value was 19.1.

**Q.** And the “Therapeutic Index (LD50/ED50)” value ((b) = 5Bromouracil, (b)/(a) mol ratio 2)?
**A.** Its value is 22.1.

**Q.** And the “Therapeutic Index (LD50/ED50)” value ((b) = 5Bromouracil, (b)/(a) mol ratio 10)?
**A.** The value was 19.6.

**Q.** And the “Therapeutic Index (LD50/ED50)” value ((b) = 5Iodouracil, (b)/(a) mol ratio 1)?
**A.** Its value is 18.0.

**Q.** What about the “Therapeutic Index (LD50/ED50)” value ((b) = 5Iodouracil, (b)/(a) mol ratio 2) of the same compound?
**A.** Its value is 22.4.

**Q.** What about the “Therapeutic Index (LD50/ED50)” value ((b) = 5Iodouracil, (b)/(a) mol ratio 5) of the same compound?
**A.** Its value is 17.6.

**Q.** And the “Therapeutic Index (LD50/ED50)” value ((b) = Cytidine, (b)/(a) mol ratio 1)?
**A.** The value was 17.6.

**Q.** And the “Therapeutic Index (LD50/ED50)” value ((b) = Cytidine, (b)/(a) mol ratio 2)?
**A.** The value was 23.8.

**Q.** And the “Therapeutic Index (LD50/ED50)” value ((b) = Cytidine, (b)/(a) mol ratio 10)?
**A.** Its value is 22.7.

**Q.** And the “Therapeutic Index (LD50/ED50)” value ((b) = Cytosine, (b)/(a) mol ratio 1)?
**A.** The value was 18.2.

**Q.** What about the “Therapeutic Index (LD50/ED50)” value ((b) = Cytosine, (b)/(a) mol ratio 2) of the same compound?
**A.** The value was 24.9.

**Q.** And the “Therapeutic Index (LD50/ED50)” value ((b) = Cytosine, (b)/(a) mol ratio 10)?
**A.** Its value is 26.6.

**Q.** And the “Therapeutic Index (LD50/ED50)” value ((b) = Orotic acid, (b)/(a) mol ratio 1)?
**A.** Its value is 14.8.

**Q.** What about the “Therapeutic Index (LD50/ED50)” value ((b) = Orotic acid, (b)/(a) mol ratio 2) of the same compound?
**A.** The value was 15.9.

**Q.** What about the “Therapeutic Index (LD50/ED50)” value ((b) = Orotic acid, (b)/(a) mol ratio 20) of the same compound?
**A.** The value was 17.5.

**Q.** And the “Therapeutic Index (LD50/ED50)” value ((b) = Thymidine, (b)/(a) mol ratio 0.5)?
**A.** The value was 14.4.

**Q.** And the “Therapeutic Index (LD50/ED50)” value ((b) = Thymidine, (b)/(a) mol ratio 2)?
**A.** Its value is 14.1.

**Q.** And the “Therapeutic Index (LD50/ED50)” value ((b) = Thymidine, (b)/(a) mol ratio 10)?
**A.** Its value is 10.7.

**Q.** And the “Therapeutic Index (LD50/ED50)” value ((b) = Thymine, (b)/(a) mol ratio 0.5)?
**A.** The value was -17.3.

**Q.** And the “Therapeutic Index (LD50/ED50)” value ((b) = Thymine, (b)/(a) mol ratio 2)?
**A.** Its value is 19.9.

**Q.** And the “Therapeutic Index (LD50/ED50)” value ((b) = Thymine, (b)/(a) mol ratio 10)?
**A.** Its value is 23.1.

**Q.** And the “Therapeutic Index (LD50/ED50)” value ((b) = Uridine, (b)/(a) mol ratio 1)?
**A.** Its value is 22.0.

**Q.** And the “Therapeutic Index (LD50/ED50)” value ((b) = Uridine, (b)/(a) mol ratio 2)?
**A.** The value was 26.3.

**Q.** What about the “Therapeutic Index (LD50/ED50)” value ((b) = Uridine, (b)/(a) mol ratio 20) of the same compound?
**A.** Its value is 20.6.

**Q.** And the “Therapeutic Index (LD50/ED50)” value ((b)/(a) mol ratio 0 (alone))?
**A.** The value was 13.1.
